# According to patent publication US6642250B2, “1,8-naphthyridin-2(1H)-one derivatives” (Grelan Pharmaceutical Co., Ltd., priority 1999, dated 2003):
# Like-named read-outs stand apart in the source and are kept apart here.
# Assays:
# Female beagles = format: in vivo; details: fed female beagles, oral, emesis within 3 hours
# Experimental: Female beagles (each group consisting of 3 dogs) as used herein were fed. One hour later, a suspension of each test compound in 0.5% CMC—Na solution was administered orally to the animals in a forced manner. […] Next, each maximum tolerance dose against emesis was obtained. […]
# [1] = test system: LPS-induced TNFα production in mouse peritoneal macrophages; assay: Inhibition of TNF-α production in LPS-stimulated macrophages; format: cell-based; details: Peritoneal macrophage, LPS 0.1 μg/ml, 4 hours
# Experimental: In order to measure inhibitory activity on LPS-induced TNFα production in mouse peritoneal macrophages according to Eur. J. Pharmacol., 230, 9-14 (1993), the following assay was employed. 1) Preparation of Mouse Peritoneal Macrophages Ten percent proteose peptone (2 ml/animal) was administered intraperitoneally to male C3H/HeN mice (6- to 8-week-old) for inducing peritoneal macrophages. Four days after the proteose peptone administration, mice were sacrificed by the dislocation of cervical vertebrate, bled with cutting of their carotid artery, douched intraperitoneally with ice-cooled RPMI 1640 (6 ml), massaged, and lavage fluids wherein peritoneal exudate cells suspended were harvested. The resulting cell suspension was centrifuged at 200×g, and obtained cell pellets were treated with a Tris-ammonium buffer for 1 minute to hemolyze erythrocyte contaminants. The resulting cells were washed twice with 10% FBS/RPMI 1640, resuspended, and seeded on 96-well plates (Sumitomo Bakelite, Japan) at 5×10^5 cells/0.2 ml/well. After pre-incubation for 2 hours in an atmosphere of 5% CO2/95% air, each well was rinsed 3 times with PBS(−) to remove non-adhesive cells. 2) Cell Treatment Each test compound was dissolved in DMSO, and then in 10% FBS/RPMI 1640 to make the final DMSO concentration 0.1%. The resultant test compound solution was used herein. After pre-incubation for 0.5 hr in the above test compound solution, an aliquot of macrophages prepared in the above (1) was admixed with LPS (E. coli serotype 0127: B8; Sigma) to adjust the final LPS concentration to 0.1 μg/ml. Four hours later, culture supernatants were harvested and stored at −80° C. Amounts of TNFα in the culture supernatants were measured with a mouse TNFα ELISA kit (Quantikine/trade name; R & D Systems) according to manuals attached to the kit. For control groups, an aliquot of macrophages prepared in the above (1) was admixed with LPS to adjust the final LPS concentration to 0.1 μg/ml and then treated in the same manner as aforementioned. The resultant samples were used in obtaining the concentration of each test compound required for 50% inhibition (IC50) to each control group.
# [2] = read-out: IC50 for inhibition of TNF-α production
# [3] = read-out: IC50 for inhibition of TNF-α production (molar)
Structure (SMILES),Maximum Tolerance Dose against Emesis (Female beagles),"IC50 [1, 2]","IC50 [1, 3]"
"COc1ccc(C2CNC(=O)C2)cc1OC1CCCC1 (single isomer, unassigned) [Rolipram, rolipram, reference compound]",<0.1 mg/kg,0.37 µg/mL,~1300 nM
"O=c1c(CCCc2ccncc2)cc2cccnc2n1-c1cccc([N+](=O)[O-])c1 [Example No. 8, 1-(3-Nitrophenyl)-3-[3-(pyridin-4-yl)propyl]-1,8-naphthyridin-2(1H)-one]",0.3 mg/kg,0.34 µg/mL,~880 nM
